Where two headings read alike, the source gives them in different places. Where no end group is shown, it is not given here.
Assays:
MOLP8 = test: Caspase-3/7 activation assay; assay type: cell-based; details: Homo sapiens, MOLP-8
Procedure: (§1) Cells were plated at 3000 cells/well in 384-well white plates in corresponding cell growth media. […] Caspase-3/7 activation was subsequently determined using a Caspase-Glo 3/7 Reagent (Promega) and viability was assayed using the CellTiter-Glo Reagent (Promega) as described in manufacturer’s instructions. Dose–response curves for caspase-3/7 activation and viability were plotted and analyzed (including EC50 and GI50 determination) using GraphPad Prism.

Mcl-1 [1] = target: T1, Mcl-1 (Homo sapiens, UniProt Q07820); test: SPR direct binding assay; set-up: 6His-tagged Mcl-1 protein (E171-G327) was immobilized using NTA capture-coupling
Target sequence in this assay (Q07820 171-327): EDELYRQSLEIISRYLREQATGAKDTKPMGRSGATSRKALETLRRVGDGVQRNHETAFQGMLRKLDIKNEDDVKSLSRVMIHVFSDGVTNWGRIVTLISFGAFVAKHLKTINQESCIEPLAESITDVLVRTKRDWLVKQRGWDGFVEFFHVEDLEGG
Procedure: A Biacore T200 instrument (GE Healthcare) was used to monitor binding interactions using a direct binding assay format. 6His-tagged Mcl-1 protein (E171-G327) was immobilized using NTA capture-coupling at a flow rate of 10 μL min^-1 and using an immobilization running buffer containing 10 mM HEPES, 300 mM NaCl, 1 mM TCEP, and 0.05% Tween-20 at 25 °C. […] Approximately 300 response units of Mcl-1 protein (2 μg mL^-1 in immobilization running buffer) were immobilized using the ‘aim for’ function in the T200 Control Software (GE Healthcare). Remaining reactive esters were blocked using a 7 min injection of 1 M ethanolamine. Reference flow cells were prepared without protein. All binding measurements were performed in 10 mM Tris, pH 7.5, 300 mM NaCl, 1 mM TCEP, 1% DMSO, and 0.02% Tween-20 at 25 °C at a flow rate of 30 μL min^-1. Buffer was primed through the instrument overnight to stabilize the surface before subsequent assay steps. Prior to kinetic analysis, solvent calibration and double referencing subtractions were made to eliminate bulk refractive index changes, injection noise, and data drift. Affinity and binding kinetic parameters were determined by global fitting to a 1:1-binding model within the Biacore T200 Evaluation Software (GE Healthcare).

Mcl-1 [2] = target: T1, Mcl-1; test: 2D protein-observed NMR titration (TROSY); assay type: binding; set-up: The 6His-TEV-Mcl-1(162–326) construct in a pET vector was expressed in BL21-GOLD cells; 6His-TEV (N, cleaved yes); made in house; host or cells: E. coli BL21-GOLD
Procedure: The 6His-TEV-Mcl-1(162–326) construct in a pET vector was expressed in BL21-GOLD cells and inducted by IPTG. ^15N-labeled GS-Mcl-1 was obtained by growing cells in Isogro-15N (Sigma-Aldrich) media (5 g L^-1) containing 50 µg mL^-1 Kanamycin and 12.5 µg mL^-1 Tetracycline. Expression was induced at OD^600 = 0.8 with 0.1 mM IPTG. Cells were then incubated overnight at 30 °C, harvested by centrifugation and lysed by sonication in buffer H (40 mM Hepes pH 8.0, 300 mM NaCl, 10 mM imidazole, 1 mM TCEP), supplemented with 0.3 mg mL^-1 lysozyme, 2.5 U mL^-1 benzonase, and EDTA-free protease inhibitors (Roche). The sample was centrifuged and supernatant collected and incubated with Ni-NTA resin (60 min at 4 °C). […]
NMR spectra were recorded at 298 K on a Bruker Avance 600 MHz spectrometer running Topspin 2.3 equipped with a 5 mm TCI Cryoprobe with Z-axis gradients. […] Binding was detected by ^1H–^15N 2D Transverse relaxation optimized spectroscopy (TROSY) spectra of the protein (F2 × F1) 2048 × 50 complex pairs (in Echo-Antiecho mode), 12019 × 1800 Hz sweep width, 85.2 ms × 27.8 ms acquisition times. Compound titration was recorded from fresh compound stock in DMSO-d6, and spectra were recorded at ligand concentrations of 0.04, 0.08, 0.16, 0.32, 0.63, and 1.24 mM. […]
Target sequence in this assay (Q07820 162-326): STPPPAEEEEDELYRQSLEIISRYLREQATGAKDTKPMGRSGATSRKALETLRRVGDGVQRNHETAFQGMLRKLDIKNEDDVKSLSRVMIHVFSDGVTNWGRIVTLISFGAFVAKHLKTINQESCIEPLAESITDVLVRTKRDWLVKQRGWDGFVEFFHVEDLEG

MV411 = test: Caspase-3/7 activation assay; assay type: cell-based; details: Homo sapiens, MV4-11
Procedure: as §1

H23 = test: Caspase-3/7 activation assay; assay type: cell-based; details: Homo sapiens, NCI-H23
Procedure: as §1

Mcl-1 [3] = target: T1, Mcl-1; test: TR-FRET binding assay; set-up: N-terminal GST-tagged-Mcl-1 protein from Mcl-1 (E171-G327); made in house; host or cells: E. coli
Procedure: Percent inhibition was calculated based upon min (control compound) vs. max (DMSO) according to Eq. (2) and the IC50 was derived the smart fit curve (Genedata screener) of % inhibition vs. concentration. Ki values were calculated from Eq.
Target sequence in this assay (Q07820 171-327): as the sequence (Q07820 171-327) above

[4] = target: T2, N-terminal GST-tagged Bcl-xL protein from Bcl-xL (1-209) (UniProt Q07817-1 1-209); test: AlphaScreen or HTRF; TR-FRET: GST-tagged protein with Eu-labeled anti-GST antibody and HyLite Fluor 647-labeled peptide; 384-well plates, 24 °C, 120-180 min; how the peptide Kd was determined is not told; details: both partners purified
T2 construct: Bcl-xL, residues 1-209; also called GST-Bcl-xl; not shown: GST, N-terminal, kept

[5] = target: T3, N-Terminal 6His-tagged Bfl-1 protein from Bfl-1 (M1-K151) (UniProt Q16548 1-151); test: AlphaScreen or HTRF; TR-FRET: His-tagged protein with Eu-labeled anti-His antibody and HyLite Fluor 647-labeled peptide; 384-well plates, 24 °C, 120-180 min; how the peptide Kd was determined is not told; details: both partners purified
T3 construct: Bfl-1 (Bfl-1/A1), residues M1-K151; also called His-Bfl-1; source: E. coli, purified (Ni-NTA resin, size-exclusion chromatography); not shown: 6His, N-terminal, kept
T3 sequence (looked up): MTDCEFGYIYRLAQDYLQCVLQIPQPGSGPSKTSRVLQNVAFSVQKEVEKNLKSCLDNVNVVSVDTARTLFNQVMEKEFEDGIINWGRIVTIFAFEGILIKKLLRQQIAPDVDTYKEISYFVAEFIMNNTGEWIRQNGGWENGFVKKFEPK

[6] = target: T4, N-terminal GST-tagged-Mcl-1 protein from Mcl-1 (E171-G327) (human, UniProt Q07820 171-327); test: AlphaScreen or HTRF; TR-FRET: GST-tagged protein with Eu-labeled anti-GST antibody and HyLite Fluor 647-labeled peptide; 384-well plates, 24 °C, 120-180 min; how the peptide Kd was determined is not told; details: both partners purified
T4 construct: Mcl-1, residues E171-G327; also called GST-Mcl-1; not shown: GST, N-terminal, kept
T4 sequence (Q07820 171-327): as the sequence (Q07820 171-327) above

T2 sequence (Q07817 1-209): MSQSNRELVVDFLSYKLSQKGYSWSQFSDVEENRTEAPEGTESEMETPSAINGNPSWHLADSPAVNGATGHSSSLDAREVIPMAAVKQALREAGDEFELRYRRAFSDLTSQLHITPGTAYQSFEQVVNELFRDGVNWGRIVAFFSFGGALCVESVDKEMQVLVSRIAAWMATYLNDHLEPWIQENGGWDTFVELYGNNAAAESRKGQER

An EC50 (MOLP8; caspase activation, Mcl-1-dependent cell line, read-out: MOLP-8, EC50) greater than 31500 nM, an EC50 (MOLP8; mean of log transformed data, read-out: MOLP-8 caspase pEC50 (converted)) greater than 31600 nM and a Kd (Mcl-1 [1]; mean of log transformed data, read-out: MCL1 SPR pKd (converted)) of 646 nM were found for `Cc1nn(C)c(C)c1-c1cccc2c(CCCOc3cccc4ccccc34)c(C(=O)O)[nH]c12` [Compound 2, reference compound] in this work. The Kd (Mcl-1 [1]; read-out: Mcl-1 SPR, Kd) was 650 nM, the Kd (Mcl-1 [2]; fast exchange shifts, second weaker binding event, read-out: Kd, binding event 2) was 141000 ± 8000 nM and the Kd (Mcl-1 [2]; slow exchange binding, read-out: Kd, binding event 1) was less than 5000 nM. The EC50 (MV411; caspase activation, Mcl-1-dependent cell line, read-out: MV4-11, EC50) was greater than 31500 nM, the EC50 (MV411; mean of log transformed data, read-out: MV4-11 caspase pEC50 (converted)) was greater than 31600 nM and the EC50 (H23; caspase activation, Mcl-1-dependent cell line, read-out: NCI-H23, EC50) was greater than 31500 nM. For the same molecule, the EC50 (H23; mean of log transformed data, read-out: NCI-H23 caspase pEC50 (converted)) was greater than 31600 nM, the IC50 (Mcl-1 [3]; mean of log transformed data, read-out: MCL1 FRET pIC50 (converted)) was 288 nM and the IC50 (Mcl-1 [3]; read-out: Mcl-1 FRET, IC50) was 290 nM.

B1: HyLite Fluor 647-labeled BAK peptide C(Hilyte647 C2 Maleimide)-GGGQVGRQLAIIGDDINR (peptide)
peptide: C(HiLyte Fluor 647 C2 maleimide)GGGQVGRQLAIIGDDINR
notes: added N-terminal cysteine that carries the dye, and glycine spacer; Bak BH3 stretch; also called Hylite Bak peptide
A Kd [4] of 10 nM was found for B1 in this work.

B2: HyLite Fluor 647-labeled Bim peptide C (Hilyte647 C2 Maleimide)-WIAQELRRIGDEFN (peptide)
peptide: C(HiLyte Fluor 647 C2 maleimide)WIAQELRRIGDEFN
notes: added N-terminal cysteine that carries the dye; Bim BH3 stretch; also called Hylite Bim peptide
A Kd [5] of 10 nM and a Kd [6] of 1.5 nM were found for B2 in this work.

— article PMC6297231 (Nature Communications, 2018)
